Results reported in patent US7659246B2, “Treatment of osteoarthritis” (Promics Pty Limited, priority 2002, dated 2010).

Tests used:
dermal Arthus reaction = experiment: Reverse passive dermal Arthus reaction in the rat; format: in vivo; details: intravenous, oral and topical pretreatment
[1] = test system: antigen-induced arthritis of the knee joint; experiment: Rat monoarticular antigen-induced arthritis; format: in vivo
Experimental: Female Wistar rats (150-250 g) were obtained from the Central Animal Breeding House, University of Queensland. […] Each rat received a subcutaneous injection of this suspension (0.5 mL) on days 1 and 7. On day 12-28, rats were separated into separate cages, and body weight and food and water intake monitored daily. Rats received either ordinary tap water or drinking water containing AcF-[OPdChaWR] (1). […] On day 14, rats were anaesthetised and their hind limbs shaven. […] Rats were euthanased on day 28, and whole blood collected into an Eppendorf tube and allowed to spontaneously clot on ice. Blood samples were centrifuges (11,000 rpm×3 min) and serum collected and stored at −20° C. until analysis of serum cytokines using an ELISA. Each knee capsule was lavaged with 100 μL saline, and the total cell count determined using a haemocytometer. In addition, an aliquot of the knee joint lavage fluid was dropped onto a glass slide, and allowed to air dry. Once dry, cells were stained with a differential stain (Diff Quick) and a differential cell count was performed using a 40× dry lens microscope. The remaining lavage fluids from each joint were stored at −20° C. until later analysis of intra-articular cytokine levels using an ELISA. Each knee joint was severed, trimmed leaving only the area of interest and the skin was split with a scalpel blade. Knee samples were stored in 10% buffered formalin for >10 d. Knees were then rinsed with distilled water and placed in a saturated solution of EDTA solution for 21 d for decalcification before being embedded in paraffin wax. Knee tissue samples were prepared using standard histological techniques as described in Example 1, and stained using an haematoxylin and eosin stain. Histological slides were analysed in a blind fashion. […] In no samples was there evidence of significant bone erosion. Samples were thawed on the day of ELISA analysis, and serum or intra-articular lavage fluid TNFα and IL-6 concentrations were determined from a standard curve, using an ELISA as described in Example 1.

osteoarthritis [2] = experiment: Clinical trial of PMX53 in arthritic dogs; format: in vivo, dog
Description: A single oral dose of the drug appears to be effective for at least 3-4 days, even in the most severe case. […] The individual cases are listed below.

induced osteoarthritis = experiment: Induced osteoarthritis in dogs (cruciate ligament transection); format: in vivo, dog
Experimental: Four healthy dogs were obtained from a group of pound dogs destined for euthanasia. The dogs were acclimatised to the experimental canine ward for 7 days before the experiment commenced. Dogs were housed individually and fed on a mixture of dry dog food, canned dog food and occasional raw bones. They were walked for 10 minutes twice daily throughout the trial. The dogs were of age and sex as follows:
PMX53 was synthesised by the Institute of Molecular Bioscience at the University of Queensland. The drug was dissolved in 30% polyethylene glycol 400 (PEG 400) in normal saline. The solution was made to a concentration of 3 mg/ml. The placebo vehicle was 30% PEG 400 in saline. All treatments were sterilised by filtration and stored at 4° C. The dogs were given the drug or placebo at a dose rate of 1 ml/10 kg body weight. The treatments were assigned to the dogs in a random fashion. The drug containers were marked so that the attendants who scored the gait were unaware of the treatment given to each dog.
The cruciate ligament of the left stifle (knee) joint was transected surgically by an experienced specialist surgeon. The incision in the skin was approximately 2 centimeters long. The dogs were given postoperative pain relief, including epidural analgesia and opioids. At 24 hours after the surgery all dogs were limping. No supplementary analgesic therapy was deemed necessary after day 1. All dogs tolerated the procedure very well.
The drug was given as a subcutaneous injection (0.3 mg/kg) into the loose skin on the dorsum of the neck once daily. […] Dogs were assessed twice daily for lameness while they were walked. The scoring was done by at least two people.

osteoarthritis [3] = experiment: Clinical trial of PMX53 in arthritic dogs; format: in vivo, dog; details: dogs with osteoarthritis; sc injection
[4] = dogs, day 28, compared to arthritic controls, FIG. 7

## CC(=O)N[C@@H](Cc1ccccc1)C(=O)N[C@H]1CCCNC(=O)[C@H](CCCNC(=N)N)NC(=O)[C@H](Cc2c[nH]c3ccccc23)NC(=O)[C@@H](CC2CCCCC2)NC(=O)[C@@H]2CCCN2C1=O [PMX53, AcF-[OPdChaWR]]
Dermal Arthus reaction; rat serum, FIG. 2
  rise in circulating TNFα associated with a dermal Arthus reaction: inhibition of the rise in circulating TNFα
Dermal Arthus reaction; rat, Evans blue absorbance at 650 nm, FIG. 1
  vascular leakage associated with a dermal Arthus reaction: inhibition of the vascular leakage
[1]; FIG. 5
  right knee joint IL-6 level in joint lavage: inhibition
  right knee joint TNFα level in joint lavage: inhibition
[1]; given orally on Days -2 to +14, FIG. 4
  arthritic right knee joint swelling: inhibition of arthritic right knee joint swelling
Osteoarthritis [2]; Case #1
  joint pain on manipulation: no joint pain on manipulation
  morning stiffness: no morning stiffness
  range of joint movement: not improved
Osteoarthritis [2]; Case #1, 0.3 mg/kg subcutaneously
  time to very noticeable improvement after injection: ≤ 24 h
Osteoarthritis [2]; Case #1, 1 mg/kg oral once daily, then 0.3 mg/kg sc once daily
  improvement after treatment: marked
Osteoarthritis [2]; Case #1, injections for 12 months
  side effects: no apparent side effects
Osteoarthritis [2]; Case #2
  attitude (owner report): noticeable improvement in attitude
Osteoarthritis [2]; Case #2, 1 mg/kg orally 4 weeks, then 0.3 mg/kg sc once daily
  lameness: did not improve
Osteoarthritis [2]; Case #3, 1 mg/kg per day orally, then 0.3 mg/kg sc as required, no NSAIDs
  response to therapy: responded very well
Osteoarthritis [2]; Case #3, after 9 months of treatment
  side effects: no side effects
Osteoarthritis [2]; Case #4 (rheumatoid arthritis), 0.3 mg/kg SC once a week alone
  control of clinical signs: did not completely control the clinical signs
Osteoarthritis [2]; Case #4, PMX53 once a week with prednisolone 2.5 mg PO once every second day
  clinical result in combination with prednisolone: excellent results
Osteoarthritis [2]; dogs with osteoarthritis, oral
  duration of effect of a single oral dose: 3 to 4 days
Osteoarthritis [2]; dogs, up to 12 months treatment
  side effects: No side effects
Induced osteoarthritis; dog #2 (drug treated), also seen in placebo dog #4, day 28
  cartilage erosion: mild cartilage erosion
Induced osteoarthritis; dogs n=2, 0.3 mg/kg sc once daily, placebo 10-13 days, FIG. 6b
  time of treatment to improvement in the degree of lameness: 4 to 6 days
Induced osteoarthritis; dogs, 0.3 mg/kg sc once daily
  clinical impression of ability to walk: clearly improved the ability of the dogs to walk
Induced osteoarthritis; dogs, 0.3 mg/kg sc once daily, day 28
  gait at the end of the trial: relatively sound
Induced osteoarthritis; dogs, before surgery and at day 28
  blood biochemistry and haematology: No abnormalities were detected
Induced osteoarthritis; [4]
  fibrosis of the joint (histopathology): reduced fibrosis
  thickening of the synovial membrane (histopathology): reduced thickening of the synovial membrane
Induced osteoarthritis; dogs, sc in 30% PEG 400 in saline, drug and placebo alike
  discomfort when injected: mild discomfort
Induced osteoarthritis; dogs, sc, dorsum of the neck, day 28
  site of injection at post mortem: no abnormalities
Induced osteoarthritis; dogs, versus placebo-treated dogs
  recovery from surgery: recovered from surgery more rapidly
Osteoarthritis [3]
  duration of effects of one injection: last for weeks
